We go through 27 compounds from article PMC11855827, “High-Throughput Screening of Five Compound Libraries for Anthelmintic Activity and Toxicity Leads to the Discovery of Two Flavonoid Compounds” (International Journal of Molecular Sciences, 2025).

The test system of this test is C. elegans. Conditions: Table S2, C. elegans SS assay, 110 μM, averages of 4 data points.

Several values for one entry are separate records, joined by “and”; a condition that tells them apart may be missing. Equal values may be shown once.

Consider `C=C1[C@H](OC(=O)c2ccccc2)C[C@H]2[C@@H](/C=C(\C)C(=O)[C@@]3(OC(C)=O)C[C@H](C)[C@H](OC(=O)c4ccccc4)[C@@H]3[C@H]1OC(C)=O)C2(C)C` [Euphorbia Factor L2], for which the “Percentage of motility inhibition 0 h” value was determined as 27% and the “Percentage of motility inhibition 24 h” value is on record as 21%.

Take `COc1ccc([C@@H]2CC(=O)c3c(O)cc(O[C@@H]4O[C@H](CO)[C@@H](O)[C@H](O)[C@H]4O)cc3O2)cc1` [Isosakuranin]: the “Percentage of motility inhibition 0 h” value came out at 1% and the “Percentage of motility inhibition 24 h” value is listed as 2%. As for `O=C(O)CO` [Glycolic acid], the “Percentage of motility inhibition 0 h” value was found to be 5% and the “Percentage of motility inhibition 24 h” value turned out to be 6%. On the same counts, the results for `CC(=O)O[C@H]1Cc2cc3c(cc2[C@H]2N(C)Cc4c(ccc5c4OCO5)[C@@]12C)OCO3` [Acetylcorynoline] are 34% and 11%. Take `CN[C@H](CC(C)C)C(=O)N[C@H]1C(=O)N[C@@H](CC(N)=O)C(=O)N[C@H]2C(=O)N[C@H]3C(=O)N[C@H](C(=O)N[C@H](C(=O)O)c4cc(O)cc(O)c4-c4cc3ccc4O)[C@H](O)c3ccc(c(Cl)c3)Oc3cc2cc(c3O[C@@H]2O[C@H](CO)[C@@H](O)[C@H](O)[C@H]2O[C@H]2C[C@](C)(N)[C@H](O)[C@H](C)O2)Oc2ccc(cc2Cl)[C@H]1O.Cl` [Vancomycin (hydrochloride)]: the “Percentage of motility inhibition 0 h” value is recorded as 15% and the “Percentage of motility inhibition 24 h” value is recorded as 0%. Taken in the same sequence, the figures for `C[C@H]1CC[C@@H]2N(C1)C[C@H]1[C@@H]3C[C@H]4[C@@H](CC(=O)[C@H]5C[C@@H](O[C@@H]6O[C@H](CO)[C@@H](O)[C@H](O)[C@H]6O)CC[C@@]54C)[C@@H]3CC[C@@H]1[C@]2(C)O` [Edpetiline] were 11% and 56%. For the compound `COc1ccc([C@@H]2COc3cc(O[C@@H]4O[C@H](CO)[C@@H](O)[C@H](O)[C@H]4O)ccc3C2)c(O)c1OC` [Isomucronulatol 7‐O‐glucoside], the “Percentage of motility inhibition 0 h” value turned out to be 8% and the “Percentage of motility inhibition 24 h” value is recorded as 10%. Taken in the same sequence, the figures for `COc1cc(OC)c2c(=O)cc(-c3ccc(O)c(O)c3)oc2c1` [5,7‐Dimethoxyluteolin] were 24% and 13%. On the same counts, the results for `COc1ccc2c3c1O[C@H]1C[C@@H](O)C=C[C@@]31CC[N+](C)([O-])C2` (some centres unmarked) [Galanthamine N‐Oxide] are 3% and 4%. `CC=C1[C@H](O[C@@H]2O[C@H](CO)[C@@H](O)[C@H](O)[C@H]2O)OC=C(C(=O)OC)[C@H]1CC(=O)OC[C@H]1O[C@@H](OCCc2ccc(O)cc2)[C@H](O)[C@@H](O)[C@@H]1O` (stereo in doubt) [Specneuzhenide]: the “Percentage of motility inhibition 0 h” value came out at 3% and the “Percentage of motility inhibition 24 h” value is given as 31%. Taken in the same sequence, the figures for `C=C1CCC2C(C=C(C)C(=O)C3(OC(C)=O)CC(C)C(OC(=O)c4ccccc4)C3C1OC(C)=O)C2(C)C` (centres unmarked) [5,15-Diacetyl-3-benzoyllathyrol] were 30% and 32%. On the same counts, the results for `CC(C)C1=CC(=O)C(C)(C2C(O)CC3(C)C4CC=C5C(CCC(OC6OC(CO)C(O)C(O)C6OC6OC(C)C(O)C(O)C6O)C5(C)C)C4(C)C(=O)CC23C)O1` (centres unmarked) [Picfeltarraenin IB] are 0% and 34%. Taken in the same sequence, the figures for `CC1=C(CO)C(C)(C)CCC1` [β-Cyclogeraniol] were 15% and 48%. As for `CCCc1ncc(C[n+]2ccccc2C)c(N)n1.Cl.[Cl-]` [Amprolium (hydrochloride)], the “Percentage of motility inhibition 0 h” value is given as 12% and the “Percentage of motility inhibition 24 h” value worked out at 0%. Taken in the same sequence, the figures for `COc1c(O[C@@H]2O[C@H](C(=O)O)[C@@H](O)[C@H](O)[C@H]2O)cc(O)c2c(=O)cc(-c3ccccc3)oc12` [Wogonoside] were 6% and 2%. On the same counts, the results for `Oc1cc(O)c2c(c1)O[C@@]1(c3ccc(O)c(O)c3)Oc3cc(O)c4c(c3[C@@H]2[C@H]1O)O[C@H](c1ccc(O)c(O)c1)[C@H](O)C4` [Procyanidin A2] are 6% and 3%. As to `Oc1cc(O)c2ccc(-c3ccc(O)c(O)c3)[o+]c2c1.[Cl-]` [Luteolinidin (chloride)], the “Percentage of motility inhibition 0 h” value was found to be 29% and the “Percentage of motility inhibition 24 h” value was 8%. Taken in the same sequence, the figures for Evodiamine were 0% and 23%. On to `C=C[C@H]1[C@H](O[C@@H]2O[C@H](CO)[C@@H](O)[C@H](O)[C@H]2O)OC=C(C(=O)OC)[C@H]1CCOC(=O)c1cc(O)c(O)c(O)c1` [Cornuside], for which the “Percentage of motility inhibition 0 h” value is 0% and the “Percentage of motility inhibition 24 h” value is listed as 24%. On the same counts, the results for `CN1C[C@@H]2C[C@H]1CN2c1cc2c(cc1F)c(=O)c(C(=O)O)cn2C1CC1.CS(=O)(=O)O` [Danofloxacin (mesylate)] are 0% and 15%. On the same counts, the results for `C=C1[C@H]2C[C@H]2[C@]2(C)Cc3occ(C)c3[C@H](O)[C@@H]12` [Lindenenol] are 0% and 19%.

On to `COC1=CC(=O)OC(/C=C/c2ccccc2)C1` (stereo not drawn) [(+)‐Kavain], for which the “Percentage of motility inhibition 0 h” value was 38% and the “Percentage of motility inhibition 24 h” value is 14%. Regarding `CC1(C)CC(NC(=O)C(=O)Nc2ccc(Cl)cc2)CC(C)(C)N1` [NBD‐556], the “Percentage of motility inhibition 0 h” value is recorded as 45% and the “Percentage of motility inhibition 24 h” value is on record as 11%. On the same counts, the results for `CC[C@](C)(C#N)O[C@@H]1O[C@H](CO)[C@@H](O)[C@H](O)[C@H]1O` [Lotaustralin] are 11% and 20%. Taken in the same sequence, the figures for `COc1ccc(/C=C/C(=O)O[C@@H]2[C@H](O[C@@H]3O[C@@H](C)[C@H](O)[C@@H](O)[C@H]3O)[C@@H](O[C@@H]3O[C@@H](C)[C@H](O[C@@H]4OC[C@@H](O[C@@H]5O[C@H](CO)[C@H](O)[C@H](O)[C@H]5O)[C@H](O)[C@H]4O)[C@@H](O)[C@H]3O)[C@H](OC(=O)[C@]34CCC(C)(C)C[C@H]3C3=CC[C@@H]5[C@@]6(C)C[C@H](O)[C@H](O[C@@H]7O[C@H](CO)[C@@H](O)[C@H](O)[C@H]7O)[C@@](C)(C(=O)O)[C@@H]6CC[C@@]5(C)[C@]3(CO)CC4)O[C@@H]2C)cc1` [Onjisaponin B] were 30% and 33%. Consider `C=C1CC[C@@H]2[C@](C)(COC(=O)CCC(=O)O)[C@H](OC(=O)CCC(=O)O)CC[C@@]2(C)[C@@H]1/C=C/C1=CCOC1=O` [Dehydroandrographolide succinate], for which the “Percentage of motility inhibition 0 h” value is 7% and 0%.

As for `CC(C)[C@H](N)C(=O)OCC(CO)OCn1cnc2c(=O)nc(N)[nH]c21.Cl` (some centres unmarked) [Valganciclovir (hydrochloride)], the “Percentage of motility inhibition 0 h” value amounted to 9% and the “Percentage of motility inhibition 24 h” value was 0%.
